# Data from patent US20170216252A1, “ANTI-BACTERIAL PYRUVATE KINASE MODULATOR COMPOUNDS, COMPOSITIONS, USES AND METHODS” (SIMON FRASER UNIVERSITY, priority 2014, published 2017).
# Where two headings read alike, the source gives them in different places.
# How the values were obtained:
# S. aureus ATCC 29213 = experiment: In vitro susceptibility, broth microdilution MIC; type: cell-based, Staphylococcus aureus; conditions: Staphylococcus aureus, read-out: MIC
# In short: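 The MIC against S. aureus 29213 was determined by CLSI 2-fold serial broth microdilution in Mueller Hinton broth. Plates were incubated for 18–24 h at 37 °C and read at OD600 with background subtracted. The MIC was the lowest concentration giving complete growth inhibition versus compound-free wells.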
# MRSA PK = molecular target: T1, MRSA PK (Staphylococcus aureus, UniProt Q6GG09); experiment: MRSA PK activity, continuous LDH-coupled assay; type: biochemical, S. aureus (MRSA strain Sanger 252); conditions: for inhibition at 10 µM: read-out: % inhibition at the highest concentration tested (IC50)
# T1 construct: His tag (pET-28a(+) vector) (N); made in house; host or cells: E. coli BL-21 (DE3)
# In short: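 Purified His-tagged MRSA PK (15 nM, E. coli-expressed) started reactions run up to 5 min at 30 °C. Activity was followed continuously by LDH-coupled NADH oxidation at 340 nm, with DMSO ≤1%. IC50 came from four-parameter variable-slope fits.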
# [1] = ATCC29213, Tables 1-6 and text, minimum concentration to give >98% inhibition of growth
# [2] = ATCC29213, Table 8, tested at least in duplicate, differing values all given
# [3] = Tables 1-6, 2 mM ADP, 10 mM PEP, 15 nM PK, read-out: IC50
# T1 sequence (Q6GG09 whole entry): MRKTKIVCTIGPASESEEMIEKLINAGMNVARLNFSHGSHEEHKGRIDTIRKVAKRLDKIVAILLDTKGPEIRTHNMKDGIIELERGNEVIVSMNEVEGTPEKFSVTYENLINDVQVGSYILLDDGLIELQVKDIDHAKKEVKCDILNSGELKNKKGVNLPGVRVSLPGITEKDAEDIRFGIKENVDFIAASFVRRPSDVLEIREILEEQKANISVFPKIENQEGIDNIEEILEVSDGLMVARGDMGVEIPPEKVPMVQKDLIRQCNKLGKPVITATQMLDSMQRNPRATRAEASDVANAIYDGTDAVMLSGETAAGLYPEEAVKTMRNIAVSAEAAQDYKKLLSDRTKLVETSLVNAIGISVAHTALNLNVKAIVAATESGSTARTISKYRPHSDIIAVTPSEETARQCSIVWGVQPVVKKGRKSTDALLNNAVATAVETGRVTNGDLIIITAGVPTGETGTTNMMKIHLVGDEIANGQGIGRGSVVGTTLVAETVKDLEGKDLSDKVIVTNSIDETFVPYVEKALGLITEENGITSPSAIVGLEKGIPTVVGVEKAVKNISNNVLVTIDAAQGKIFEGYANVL
Structure (SMILES),MIC (S. aureus ATCC 29213; [1]),IC50 (MRSA PK),MIC (S. aureus ATCC 29213; [2]),IC50 (MRSA PK; [3]),inhibition at 10 µM (MRSA PK)
"COc1ccc(Br)cc1C(=O)Nc1nc2ccc(Br)cc2s1 [Compound 68, 5-Bromo-N-(6-bromobenzo[d]thiazol-2-yl)-2-methoxybenzamide]",> 64 µg/mL,8.3 nM,,,
"Brc1cncc(/C=C/c2cc3ccc(Br)cc3[nH]2)c1 [Compound 100, (E)-6-Bromo-2-(2-(5-bromopyridin-3-yl)vinyl)-1H-indole]",,> 1000 nM,> 64 µg/mL,,
"COC(=O)c1c(NCc2cn3ccccc3n2)[nH]c2cc(Br)ccc12 [Compound 166, Methyl 6-bromo-2-(imidazo[1,2-a]pyridin-2-ylmethylamino)-1H-indole-3-carboxylate]",,> 1000 nM,> 64 µg/mL,,
"Clc1ccc(/C=C/c2cc3ccc(Br)cc3[nH]2)nc1 [Compound 108, (E)-6-Bromo-2-(2-(5-chloropyridin-2-yl)vinyl)-1H-indole]",,100 to 1000 nM,> 64 µg/mL,,
"Clc1cnc(/C=C/c2cc3ccc(Br)cc3[nH]2)cn1 [Compound 118, (E)-6-Bromo-2-(2-(5-chloropyrazin-2-yl)vinyl)-1H-indole]",,50 to 100 nM,16 µg/mL,,
"Brc1ccc2[nH]c(/C=C/c3cc4ccc(Br)cc4[nH]3)cc2c1 [Compound 27c, (E)-6-bromo-2-(2-(5-bromo-1H-indol-2-yl)vinyl)-1H-indole]",> 64 µg/mL,,,4.1 nM,
"O=C(Nc1ccc(Cl)nc1)c1[nH]c2cc(Br)ccc2c1C(=O)O [Compound 139, 6-Bromo-2-((6-chloropyridin-3-yl)carbamoyl)-1H-indole-3-carboxylic acid]",,50 to 100 nM,> 64 µg/mL,,
O=C(Nc1nc2ccc(Br)cc2s1)c1ccccc1O [Compound 66],> 64 µg/mL,,,,59%
"O=C(Nc1nc2cc(Br)ccc2s1)c1cc(Br)ccc1O [Compound 50, 5-Bromo-N-(5-bromobenzo[d]thiazol-2-yl)-2-hydroxybenzamide]",> 64 µg/mL,,,,60%
"Brc1ccc2cc(CCc3cn4c(n3)CCCC4)[nH]c2c1 [Compound 126, 2-(2-(6-Bromo-1H-indol-2-yl)ethyl)-5,6,7,8-tetrahydroimidazo[1,2-a]pyridine]",,> 100000 nM,64 µg/mL,,
"Brc1ccc(-c2cc3ccc(Br)cc3[nH]2)cc1 [Compound 55, 6-bromo-2-(4-bromophenyl)-1H-indole]",> 64 µg/mL,56.9 nM,,,
"Brc1ccc2cc(/C=C/c3ccc(-n4ccnc4)cc3)[nH]c2c1 [Compound 104, (E)-2-(4-(1H-Imidazol-1-yl)styryl)-6-bromo-1H-indole]",,> 1000 nM,> 64 µg/mL,,
"O=C(c1c(CCc2cc(Cl)cc(Cl)c2)[nH]c2cc(Br)ccc12)C(F)(F)F [Compound 171, 1-(6-Bromo-2-(3,5-dichlorophenethyl)-1H-indol-3-yl)-2,2,2-trifluoroethanone]",,> 1000 nM,1 µg/mL,,
"O=C(Nc1ccc(Cl)cc1)c1[nH]c2cc(Br)ccc2c1C(=O)O [Compound 129, 6-Bromo-2-((4-chlorophenyl)carbamoyl)-1H-indole-3-carboxylic acid]",,< 50 nM,16 µg/mL,,
"Brc1ccc2[nH]c(-c3ccc(-c4cc5cc(Br)ccc5[nH]4)s3)cc2c1 [Compound 43, 2,5-bis(5-Bromo-1H-indol-2-yl)thiophene]",> 64 µg/mL,,,,50%
O=C(Nc1nc2ccccc2s1)c1cc(Br)ccc1O [Compound 56],> 64 µg/mL,,,,76%
"CC(=O)c1c(CCc2ccc(Cl)cc2)[nH]c2cc(Br)ccc12 [Compound 39b, 1-(6-bromo-2-(4-chlorophenethyl)-1H-indol-3-yl)ethanone]",4 µg/mL,28 nM,,,
"O=C(Nc1nc2ccc(Br)cc2s1)c1ccc(Br)cc1O [Compound 67, 4-Bromo-N-(6-bromobenzo[d]thiazol-2-yl)-2-hydroxybenzamide]",> 64 µg/mL,,,214 nM,
"O=C(O)c1c(-c2cc3cc(Cl)ccc3[nH]2)[nH]c2cc(Br)ccc12 [Compound 162, 6-bromo-5′-chloro-1H,1′H-[2,2′-biindole]-3-carboxylic acid]",,< 50 nM,4 µg/mL,,
"Brc1ccc2cc(CNCc3ccccc3)[nH]c2c1 [Compound 146, N-Benzyl-1-(6-bromo-1H-indol-2-yl)methanamine]",,> 1000 nM,32 µg/mL,,
"O=C(Nc1cc(Br)ccc1O)c1cc2ccc(Br)cc2[nH]1 [Compound 62, 6-Bromo-N-(5-bromo-2-hydroxyphenyl)-1H-indole-2-carboxamide]",> 64 µg/mL,12.3 nM,,,
